In patent US5096902A, “Heterocyclic compounds containing nitrogen and sulfur, pharmaceutical compositions containing them and process for preparing same” (Richter Gedeon Vegyeszeti Gyar Rt., priority 1989, dated 1992):
Where two headings read alike, the source gives them in different places.

Columns and labels:
[1] = system: conscious mice; experiment: Normobaric hypoxia test (96% nitrogen / 4% oxygen) in conscious mice; assay type: in vivo; conditions: 50 mg/kg i.p.; for Survival time / response vs control in vivo at 50 mg/kg: 30 min before; for Survival time: three series with controls 6.32, 5.78 and 3.05 min; for response vs control in vivo at 50 mg/kg / responders at 50 mg/kg: Mus musculus, ip; for response vs control in vivo at 50 mg/kg: control = 100, read-out: Survival time, % (relative to control group); for responders at 50 mg/kg: protected = survival twice as long as control group, read-out: Protection
Source text: The antihypoxic activity was investigated on conscious mice under normobaric hypoxia. Five male mice each were placed in a glass cylinder of 3 liters volume, which a gaseous mixture containing 96% of nitrogen and 4% of oxygen was bubbled through. The interval passing from the accomodation of the animals until the cessation of their respiratory movement was registered as survival time. Animals surviving a time of two times as long as that of the control group, were considered to be protected.
Ten animals each were intraperitoneally (i.p.) given a dose of 50 mg/kg of body-weight (hereinafter abbreviated: mg/kg) each of the substances 30 minutes before the accommodation in the glass cylinders. The average time of survival, the percentage of elongation of survival time in comparison to that of the control group and the percentage of the animals protected are shown in Table I.

[2] = system: mice; experiment: Asphyxial anoxia test; assay type: in vivo; conditions: Mus musculus; oral, mice starved 16 hours, 1 hour after treatment; protected = survival longer by 30% than control; probit analysis
Method: (§1) The antihypoxic effect of the compounds according to the invention was proven also by using the methods of asphyxial anoxia and hypobaric hypoxia. These investigations were carried out by oral administration also proving the oral efficiency which makes possible use of the active compounds according to the invention in a tablet form.
Mice starved for 16 hours were orally treated with the compounds according to the invention and after one hour, they were placed into well-closed glass bottles of 100 ml volume. The interval passing from closing the bottle until the cessation of the respiratory movement was registered as survival time. Animals surviving longer by 30% than that of average survival time of the control group, were considered to be protected.
(§2) In the cases of both methods, the ED50 values, i.e. the dose protecting half of the treated animals from the hypoxia, were calculated by using probit analysis.

[3] = system: mice; experiment: Hypobaric hypoxia test; assay type: in vivo; conditions: Mus musculus; oral, mice starved 16 hours, 170 Hgmm, 1 hour after treatment; protected = survival twice control; probit analysis
Method: as §1
Mice starved for 16 hours were orally treated with the compounds according to the invention, and placed into a desiccator one hour following the treatment. The pressure in the desiccator was reduced to 170 Hgmm within 20 seconds and the survival time was registered from this time until the cessation of respiratory movement. Animals surviving twice as long as the average survival time of the control group were considered to be protected.
as §2

[4] = Toxicity (LD50) on mice; conditions: mouse, in vivo
Method: The toxicity of the active compound of Example 35a according to the invention was determined on mice.

Compound: O=C(CCN1CCSC1)c1ccccc1 [Example 1, 1-phenyl-3-(thiazolidinyl)propan-1-one]
- Survival time [1]: 9.35 min
- response vs control in vivo at 50 mg/kg [1]: 148%
- responders at 50 mg/kg [1]: 30%

Compound: COc1ccc(C(=O)CCN2CCSC2)cc1 [Example 8]
- Survival time [1]: 8.27 min
- response vs control in vivo at 50 mg/kg [1]: 131%
- responders at 50 mg/kg [1]: 20%

Compound: COc1ccc(C(=O)CCN2CCSC2)c(C)c1 [Example 12]
- Survival time [1]: 10.28 min
- response vs control in vivo at 50 mg/kg [1]: 178%
- responders at 50 mg/kg [1]: 40%

Compound: O=C(CCN1CCSC1)c1ccc(Cl)cc1 [Example 17]
- ED50 [2]: 55 mg/kg
- ED50 [3]: 60 mg/kg
- Survival time [1]: 11.00 min
- response vs control in vivo at 50 mg/kg [1]: 174%
- responders at 50 mg/kg [1]: 60%

Compound: O=C(CCN1CCSC1)c1ccc(Br)cc1 [Example 18]
- Survival time [1]: 10.58 min
- response vs control in vivo at 50 mg/kg [1]: 167%
- responders at 50 mg/kg [1]: 50%

Compound: O=C(CCN1CCSC1)c1ccc(Cl)c(Cl)c1 [Example 19]
- Survival time [1]: 7.90 min
- response vs control in vivo at 50 mg/kg [1]: 125%
- responders at 50 mg/kg [1]: 20%

Compound: O=C(CCN1CCSC1)c1cccc([N+](=O)[O-])c1 [Example 20]
- Survival time [1]: 7.85 min
- response vs control in vivo at 50 mg/kg [1]: 136%
- responders at 50 mg/kg [1]: 20%

Compound: CC(CN1CCSC1)C(=O)c1ccccc1 (stereo not drawn) [Example 22]
- Survival time [1]: 9.27 min
- response vs control in vivo at 50 mg/kg [1]: 147%
- responders at 50 mg/kg [1]: 30%

Compound: CC(CN1CCSC1)C(=O)c1ccc(F)cc1 (stereo not drawn) [Example 27]
- Survival time [1]: 5.32 min
- response vs control in vivo at 50 mg/kg [1]: 174%
- responders at 50 mg/kg [1]: 20%

Compound: CC(CN1CCSC1)C(=O)c1ccc(Br)cc1 (stereo not drawn) [Example 30]
- Survival time [1]: 8.40 min
- response vs control in vivo at 50 mg/kg [1]: 145%
- responders at 50 mg/kg [1]: 40%

Compound: CSc1ccc(C(=O)CCN2CCSC2)cc1 [Example 34, 1-(4-methylthiophenyl)-3-(3-thiazolidinyl)propan-1-one]
- Survival time [1]: 12.76 min
- response vs control in vivo at 50 mg/kg [1]: 202%
- responders at 50 mg/kg [1]: 70%

Compound: O=C(CCN1CCSC1)c1ccc(F)cc1 [Example 35a, 1-(4-fluorophenyl)-3-(3-thiazolidinyl)propan-1-one]
- ED50 [2]: 18.3 mg/kg
- ED50 [3]: 58.7 mg/kg
- LD50 ([4]; intravenous, read-out: LD50 intravenously): 108 mg/kg
- LD50 ([4]; oral, read-out: LD50 orally): 646 mg/kg
- Survival time [1]: 10.75 min
- response vs control in vivo at 50 mg/kg [1]: 186%
- responders at 50 mg/kg [1]: 60%

Compound: O=C(CCN1CCSC1)c1cccs1 [Example 37, 1-(2-thienyl)-3-(3-thiazolidinyl)propan-1-one]
- Survival time [1]: 12.22 min
- response vs control in vivo at 50 mg/kg [1]: 211%
- responders at 50 mg/kg [1]: 60%

Compound: CCc1ccc(C(=O)CCN2CCSC2)s1 [Example 38]
- Survival time [1]: 9.95 min
- response vs control in vivo at 50 mg/kg [1]: 172%
- responders at 50 mg/kg [1]: 30%

Compound: O=C(CCN1CCSC1)c1ccc(Cl)s1 [Example 39]
- Survival time [1]: 10.43 min
- response vs control in vivo at 50 mg/kg [1]: 180%
- responders at 50 mg/kg [1]: 40%

Compound: CC(CN1CCSC1)C(=O)c1cccs1 (stereo not drawn) [Example 41]
- Survival time [1]: 8.91 min
- response vs control in vivo at 50 mg/kg [1]: 154%
- responders at 50 mg/kg [1]: 20%

Compound: O=C(CCN1CCCSC1)c1ccc(-c2ccccc2)cc1 [Example 49]
- Survival time [1]: 9.72 min
- response vs control in vivo at 50 mg/kg [1]: 154%
- responders at 50 mg/kg [1]: 30%

Compound: COC(=O)C1N(CCC(=O)c2ccc(F)cc2)CSC1(C)C (stereo not drawn) [Example 70]
- Survival time [1]: 5.78 min
- response vs control in vivo at 50 mg/kg [1]: 189%
- responders at 50 mg/kg [1]: 60%
